Tests used:
[1] = target: T1, EGFR (Homo sapiens, UniProt P00533); assay: Proqinase Kinase profiling; format: biochemical; conditions: read-out: % inhibition at 100nM
T1 construct: purchased DiscoverX

[2] = target: T2, CDC42BPA (Homo sapiens, UniProt Q5VT25); assay: Proqinase Kinase profiling; format: biochemical; conditions: read-out: % inhibition at 100nM
T2 construct: purchased DiscoverX

[3] = target: T3, RET_V804M (Homo sapiens, UniProt P07949, V804M); assay: Proqinase Kinase profiling; format: biochemical; conditions: read-out: % inhibition at 100nM
T3 construct: purchased DiscoverX

[4] = target: T4, NTRK2 (Homo sapiens, UniProt Q16620); assay: Proqinase Kinase profiling; format: biochemical; conditions: read-out: % inhibition at 100nM
T4 construct: purchased DiscoverX

[5] = target: T5, TEK_Y897S (Homo sapiens, UniProt Q02763, Y897S); assay: Proqinase Kinase profiling; format: biochemical; conditions: read-out: % inhibition at 100nM
T5 construct: purchased DiscoverX

[6] = target: T6, FGFR3_K650M (Homo sapiens, UniProt P22607, K650M); assay: Proqinase Kinase profiling; format: biochemical; conditions: read-out: % inhibition at 100nM
T6 construct: purchased DiscoverX

[7] = target: T7, RPS6KA3 (Homo sapiens, UniProt P51812); assay: Proqinase Kinase profiling; format: biochemical; conditions: read-out: % inhibition at 100nM
T7 construct: purchased DiscoverX

[8] = target: T8, CAMKK1 (Homo sapiens, UniProt Q8N5S9); assay: Proqinase Kinase profiling; format: biochemical; conditions: read-out: % inhibition at 100nM
T8 construct: purchased DiscoverX

[9] = target: T9, EPHA4 (Homo sapiens, UniProt P54764); assay: Proqinase Kinase profiling; format: biochemical; conditions: read-out: % inhibition at 100nM
T9 construct: purchased DiscoverX

[10] = target: T10, FER (Homo sapiens, UniProt P16591); assay: Proqinase Kinase profiling; format: biochemical; conditions: read-out: % inhibition at 100nM
T10 construct: purchased DiscoverX

[11] = target: T11, CSNK1G2 (Homo sapiens, UniProt P78368); assay: Proqinase Kinase profiling; format: biochemical; conditions: read-out: % inhibition at 100nM
T11 construct: purchased DiscoverX

[12] = target: T12, NEK3 (Homo sapiens, UniProt P51956); assay: Proqinase Kinase profiling; format: biochemical; conditions: read-out: % inhibition at 100nM
T12 construct: purchased DiscoverX

[13] = target: T13, SIK2 (Homo sapiens, UniProt Q9H0K1); assay: Proqinase Kinase profiling; format: biochemical; conditions: read-out: % inhibition at 100nM
T13 construct: purchased DiscoverX

[14] = target: T14, SGK2 (Homo sapiens, UniProt Q9HBY8); assay: Proqinase Kinase profiling; format: biochemical; conditions: read-out: % inhibition at 100nM
T14 construct: purchased DiscoverX

[15] = target: T15, EGFR_S752-I759del (Homo sapiens, UniProt P00533, DEL752-759); assay: Proqinase Kinase profiling; format: biochemical; conditions: read-out: % inhibition at 100nM
T15 construct: purchased DiscoverX

[16] = target: T16, MET_Y1230D (Homo sapiens, UniProt P08581, Y1230D); assay: Proqinase Kinase profiling; format: biochemical; conditions: read-out: % inhibition at 100nM
T16 construct: purchased DiscoverX

[17] = target: T17, MAP4K4 (Homo sapiens, UniProt O95819); assay: Proqinase Kinase profiling; format: biochemical; conditions: read-out: % inhibition at 100nM
T17 construct: purchased DiscoverX

[18] = target: T18, PRKD1 (Homo sapiens, UniProt Q15139); assay: Proqinase Kinase profiling; format: biochemical; conditions: read-out: % inhibition at 100nM
T18 construct: purchased DiscoverX

[19] = target: T19, HIPK3 (Homo sapiens, UniProt Q9H422); assay: Proqinase Kinase profiling; format: biochemical; conditions: read-out: % inhibition at 100nM
T19 construct: purchased DiscoverX

[20] = target: T20, PRKCQ (Homo sapiens, UniProt Q04759); assay: Proqinase Kinase profiling; format: biochemical; conditions: read-out: % inhibition at 100nM
T20 construct: purchased DiscoverX
T20 sequence (Q04759 whole entry): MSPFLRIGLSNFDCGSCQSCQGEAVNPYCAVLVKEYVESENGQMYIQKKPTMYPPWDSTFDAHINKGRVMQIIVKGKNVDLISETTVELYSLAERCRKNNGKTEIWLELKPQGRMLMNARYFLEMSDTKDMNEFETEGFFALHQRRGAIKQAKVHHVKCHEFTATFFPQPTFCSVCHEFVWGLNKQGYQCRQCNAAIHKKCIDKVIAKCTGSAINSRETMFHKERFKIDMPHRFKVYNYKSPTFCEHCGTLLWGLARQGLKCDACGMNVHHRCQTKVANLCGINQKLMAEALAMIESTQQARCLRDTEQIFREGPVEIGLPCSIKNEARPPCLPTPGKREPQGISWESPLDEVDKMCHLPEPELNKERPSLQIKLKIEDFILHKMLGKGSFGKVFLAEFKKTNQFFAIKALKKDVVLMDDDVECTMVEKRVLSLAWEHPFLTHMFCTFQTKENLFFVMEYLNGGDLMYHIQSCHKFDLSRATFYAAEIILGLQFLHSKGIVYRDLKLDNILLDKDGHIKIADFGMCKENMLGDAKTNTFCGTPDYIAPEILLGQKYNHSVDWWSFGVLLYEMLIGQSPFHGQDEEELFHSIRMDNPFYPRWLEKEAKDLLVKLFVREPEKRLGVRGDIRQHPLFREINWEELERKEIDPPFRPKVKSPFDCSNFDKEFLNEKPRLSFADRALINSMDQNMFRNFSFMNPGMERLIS

[21] = target: T21, PKN1 (Homo sapiens, UniProt Q16512); assay: Proqinase Kinase profiling; format: biochemical; conditions: read-out: % inhibition at 100nM
T21 construct: purchased DiscoverX

[22] = target: T22, MAP3K9 (Homo sapiens, UniProt P80192); assay: Proqinase Kinase profiling; format: biochemical; conditions: read-out: % inhibition at 100nM
T22 construct: purchased DiscoverX
T22 sequence (P80192 whole entry): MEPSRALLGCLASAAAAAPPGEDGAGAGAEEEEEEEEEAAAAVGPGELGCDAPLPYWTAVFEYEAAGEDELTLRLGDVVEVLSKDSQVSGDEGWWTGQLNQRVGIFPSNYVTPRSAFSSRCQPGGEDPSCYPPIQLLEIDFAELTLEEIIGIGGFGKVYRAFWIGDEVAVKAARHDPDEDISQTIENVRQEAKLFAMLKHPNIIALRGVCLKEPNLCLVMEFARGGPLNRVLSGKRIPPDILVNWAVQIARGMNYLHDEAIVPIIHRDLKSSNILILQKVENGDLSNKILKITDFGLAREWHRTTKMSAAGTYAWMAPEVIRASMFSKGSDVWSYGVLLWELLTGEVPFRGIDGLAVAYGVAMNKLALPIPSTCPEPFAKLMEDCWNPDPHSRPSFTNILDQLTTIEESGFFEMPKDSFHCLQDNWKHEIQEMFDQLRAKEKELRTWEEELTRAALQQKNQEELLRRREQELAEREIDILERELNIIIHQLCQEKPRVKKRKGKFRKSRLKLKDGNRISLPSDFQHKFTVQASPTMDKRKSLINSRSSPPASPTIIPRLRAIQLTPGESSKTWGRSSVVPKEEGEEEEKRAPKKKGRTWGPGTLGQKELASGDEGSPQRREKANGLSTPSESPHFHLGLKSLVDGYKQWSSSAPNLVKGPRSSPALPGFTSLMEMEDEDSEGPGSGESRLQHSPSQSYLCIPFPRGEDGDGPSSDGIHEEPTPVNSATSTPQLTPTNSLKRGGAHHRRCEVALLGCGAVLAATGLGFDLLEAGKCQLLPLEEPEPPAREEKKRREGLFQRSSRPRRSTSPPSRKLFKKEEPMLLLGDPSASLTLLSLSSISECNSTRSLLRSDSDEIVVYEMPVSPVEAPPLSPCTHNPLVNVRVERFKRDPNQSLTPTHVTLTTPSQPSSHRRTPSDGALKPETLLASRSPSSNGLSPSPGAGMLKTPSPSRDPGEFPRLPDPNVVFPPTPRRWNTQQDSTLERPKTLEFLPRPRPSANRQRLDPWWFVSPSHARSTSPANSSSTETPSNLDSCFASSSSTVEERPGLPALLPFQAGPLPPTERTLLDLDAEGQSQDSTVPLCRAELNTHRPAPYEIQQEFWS

[23] = target: T23, LCK (Homo sapiens, UniProt P06239); assay: Proqinase Kinase profiling; format: biochemical; conditions: read-out: % inhibition at 100nM
T23 construct: purchased DiscoverX

[24] = target: T24, PIM1 (Homo sapiens, UniProt P11309); assay: Proqinase Kinase profiling; format: biochemical; conditions: read-out: % inhibition at 100nM
T24 construct: purchased DiscoverX

[25] = target: T25, ACVR1B (Homo sapiens, UniProt P36896); assay: Proqinase Kinase profiling; format: biochemical; conditions: read-out: % inhibition at 100nM
T25 construct: purchased DiscoverX

[26] = target: T26, KDR (Homo sapiens, UniProt P35968); assay: Proqinase Kinase profiling; format: biochemical; conditions: read-out: % inhibition at 100nM
T26 construct: purchased DiscoverX

[27] = target: T27, GSK3A (Homo sapiens, UniProt P49840); assay: Proqinase Kinase profiling; format: biochemical; conditions: read-out: % inhibition at 100nM
T27 construct: purchased DiscoverX

[28] = target: T28, EGFR_L861Q (Homo sapiens, UniProt P00533, L861Q); assay: Proqinase Kinase profiling; format: biochemical; conditions: read-out: % inhibition at 100nM
T28 construct: purchased DiscoverX
T28 sequence (P00533 25-1210 L861Q): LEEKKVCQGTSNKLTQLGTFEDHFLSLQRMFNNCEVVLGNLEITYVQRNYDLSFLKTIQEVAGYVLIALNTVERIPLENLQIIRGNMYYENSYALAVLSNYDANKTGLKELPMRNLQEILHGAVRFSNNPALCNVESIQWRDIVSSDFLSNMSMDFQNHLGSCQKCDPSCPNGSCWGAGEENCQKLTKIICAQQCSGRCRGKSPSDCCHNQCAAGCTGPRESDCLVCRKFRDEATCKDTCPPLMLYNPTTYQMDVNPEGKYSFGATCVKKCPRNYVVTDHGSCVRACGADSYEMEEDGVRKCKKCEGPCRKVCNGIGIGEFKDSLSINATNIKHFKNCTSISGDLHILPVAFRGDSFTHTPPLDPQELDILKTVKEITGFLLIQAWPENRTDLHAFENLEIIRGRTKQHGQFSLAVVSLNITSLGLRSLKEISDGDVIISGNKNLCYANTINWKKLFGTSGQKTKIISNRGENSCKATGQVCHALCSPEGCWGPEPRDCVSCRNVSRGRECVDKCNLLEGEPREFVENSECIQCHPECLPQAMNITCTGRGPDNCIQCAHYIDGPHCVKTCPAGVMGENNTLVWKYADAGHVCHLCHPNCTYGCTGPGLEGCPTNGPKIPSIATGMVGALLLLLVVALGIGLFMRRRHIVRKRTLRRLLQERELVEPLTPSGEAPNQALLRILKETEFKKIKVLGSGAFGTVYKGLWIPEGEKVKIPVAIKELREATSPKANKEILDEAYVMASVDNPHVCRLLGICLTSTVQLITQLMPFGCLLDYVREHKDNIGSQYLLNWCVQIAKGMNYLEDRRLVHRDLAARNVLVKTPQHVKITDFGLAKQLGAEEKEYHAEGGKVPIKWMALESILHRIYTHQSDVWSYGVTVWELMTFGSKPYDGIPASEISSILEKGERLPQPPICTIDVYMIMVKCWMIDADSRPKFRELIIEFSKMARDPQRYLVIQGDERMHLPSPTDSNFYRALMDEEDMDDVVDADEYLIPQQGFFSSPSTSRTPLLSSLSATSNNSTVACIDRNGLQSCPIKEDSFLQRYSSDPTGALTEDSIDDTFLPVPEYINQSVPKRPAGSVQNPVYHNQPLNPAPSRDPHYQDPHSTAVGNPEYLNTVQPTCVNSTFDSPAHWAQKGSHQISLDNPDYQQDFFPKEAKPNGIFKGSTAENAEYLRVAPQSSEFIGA

[29] = target: T29, SRPK1 (Homo sapiens, UniProt Q96SB4); assay: Proqinase Kinase profiling; format: biochemical; conditions: read-out: % inhibition at 100nM
T29 construct: purchased DiscoverX

[30] = target: T30, BLK (Homo sapiens, UniProt P51451); assay: Proqinase Kinase profiling; format: biochemical; conditions: read-out: % inhibition at 100nM
T30 construct: purchased DiscoverX

[31] = target: T31, IRAK4 (Homo sapiens, UniProt Q9NWZ3); assay: Proqinase Kinase profiling; format: biochemical; conditions: read-out: % inhibition at 100nM
T31 construct: purchased DiscoverX
T31 sequence (Q9NWZ3 whole entry): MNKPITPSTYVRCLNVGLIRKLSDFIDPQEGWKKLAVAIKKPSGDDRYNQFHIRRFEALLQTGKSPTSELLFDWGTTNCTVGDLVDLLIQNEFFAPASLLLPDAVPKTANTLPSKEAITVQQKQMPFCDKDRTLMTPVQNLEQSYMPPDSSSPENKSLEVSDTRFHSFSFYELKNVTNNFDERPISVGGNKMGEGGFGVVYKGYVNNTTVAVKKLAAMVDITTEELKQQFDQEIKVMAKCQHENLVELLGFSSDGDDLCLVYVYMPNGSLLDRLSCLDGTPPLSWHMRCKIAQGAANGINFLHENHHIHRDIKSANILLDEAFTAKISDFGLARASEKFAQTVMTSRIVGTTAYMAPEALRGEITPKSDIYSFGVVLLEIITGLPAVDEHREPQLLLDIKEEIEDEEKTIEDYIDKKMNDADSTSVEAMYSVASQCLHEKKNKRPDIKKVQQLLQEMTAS

[32] = target: T32, ROCK2 (Homo sapiens, UniProt O75116); assay: Proqinase Kinase profiling; format: biochemical; conditions: read-out: % inhibition at 100nM
T32 construct: purchased DiscoverX

[33] = target: T33, PLK4 (Homo sapiens, UniProt O00444); assay: Proqinase Kinase profiling; format: biochemical; conditions: read-out: % inhibition at 100nM
T33 construct: purchased DiscoverX
T33 sequence (O00444 whole entry): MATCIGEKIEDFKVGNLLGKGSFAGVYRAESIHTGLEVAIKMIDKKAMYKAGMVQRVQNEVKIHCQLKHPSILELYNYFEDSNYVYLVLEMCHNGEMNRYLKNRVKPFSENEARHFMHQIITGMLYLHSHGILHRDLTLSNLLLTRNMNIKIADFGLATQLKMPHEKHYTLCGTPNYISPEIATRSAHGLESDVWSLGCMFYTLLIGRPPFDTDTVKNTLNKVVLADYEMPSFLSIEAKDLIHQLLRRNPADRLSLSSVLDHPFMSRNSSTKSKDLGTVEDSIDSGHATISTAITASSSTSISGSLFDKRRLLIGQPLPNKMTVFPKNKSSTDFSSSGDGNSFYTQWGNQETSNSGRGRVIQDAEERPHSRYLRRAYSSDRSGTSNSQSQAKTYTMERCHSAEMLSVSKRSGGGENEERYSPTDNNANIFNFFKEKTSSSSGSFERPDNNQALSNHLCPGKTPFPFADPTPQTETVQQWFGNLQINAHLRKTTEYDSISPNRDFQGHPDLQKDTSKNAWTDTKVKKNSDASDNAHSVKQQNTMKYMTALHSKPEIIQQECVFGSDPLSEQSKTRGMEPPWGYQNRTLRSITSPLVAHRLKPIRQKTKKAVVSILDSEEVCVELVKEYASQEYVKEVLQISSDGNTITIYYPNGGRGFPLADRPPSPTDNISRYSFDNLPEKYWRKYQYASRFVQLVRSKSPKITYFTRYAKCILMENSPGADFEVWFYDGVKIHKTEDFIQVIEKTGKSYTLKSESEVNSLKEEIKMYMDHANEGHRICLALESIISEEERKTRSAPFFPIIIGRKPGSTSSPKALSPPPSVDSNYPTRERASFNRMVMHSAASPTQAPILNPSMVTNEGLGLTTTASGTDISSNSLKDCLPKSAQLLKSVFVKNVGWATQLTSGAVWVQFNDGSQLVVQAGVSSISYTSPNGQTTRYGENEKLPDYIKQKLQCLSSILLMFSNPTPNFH

[34] = target: T34, LYN (Homo sapiens, UniProt P07948); assay: Proqinase Kinase profiling; format: biochemical; conditions: read-out: % inhibition at 100nM
T34 construct: purchased DiscoverX
T34 sequence (P07948 whole entry): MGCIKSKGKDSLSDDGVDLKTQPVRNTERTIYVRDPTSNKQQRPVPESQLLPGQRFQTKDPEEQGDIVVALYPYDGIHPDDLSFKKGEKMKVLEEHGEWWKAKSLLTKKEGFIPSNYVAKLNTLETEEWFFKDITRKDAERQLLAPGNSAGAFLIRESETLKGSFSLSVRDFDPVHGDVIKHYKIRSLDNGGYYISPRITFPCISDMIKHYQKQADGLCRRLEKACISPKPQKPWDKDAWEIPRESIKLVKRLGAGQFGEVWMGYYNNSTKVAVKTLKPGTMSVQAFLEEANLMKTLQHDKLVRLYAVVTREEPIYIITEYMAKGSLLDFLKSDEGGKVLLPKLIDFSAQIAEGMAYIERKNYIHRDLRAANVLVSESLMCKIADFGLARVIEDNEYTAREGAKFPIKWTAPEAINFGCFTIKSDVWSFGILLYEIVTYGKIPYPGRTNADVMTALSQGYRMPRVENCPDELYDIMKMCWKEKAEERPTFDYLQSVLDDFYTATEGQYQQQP

[35] = target: T35, PLK1 (Homo sapiens, UniProt P53350); assay: Proqinase Kinase profiling; format: biochemical; conditions: read-out: % inhibition at 100nM
T35 construct: purchased DiscoverX

[36] = target: T36, ABL1_G250E (Homo sapiens, UniProt P00519, G250E); assay: Proqinase Kinase profiling; format: biochemical; conditions: read-out: % inhibition at 100nM
T36 construct: purchased DiscoverX

[37] = test system: TGF-β-induced CAGA-LUC reporter activity; assay: TGF-β CAGA-LUC reporter assay in KS483 cells; format: cell-based, mouse; conditions: TGF-β 5 ng/mL 16 hours, compared with LDN-193189
Experimental: Compounds were added for 16 hours at 0.5μM before luciferase activity was measured.
For luciferase reporter assays, cells were seeded in 24-well plates and transfected with DharmaFECT Duo (Fisher Scientific, Landsmeer, The Netherlands), following the recommendations of the manufacturer. 48 hours after transfection the cells were harvested and lysed. […] Each transfection mixture was equalized with empty vector when necessary and every experiment was performed in triplicate.

[38] = target: T37, LTK (Homo sapiens, UniProt P29376); assay: Proqinase Kinase profiling; format: biochemical; conditions: read-out: % inhibition at 100nM
T37 construct: purchased DiscoverX

[39] = target: T38, MKNK2 (Homo sapiens, UniProt Q9HBH9); assay: Proqinase Kinase profiling; format: biochemical; conditions: read-out: % inhibition at 100nM
T38 construct: purchased DiscoverX

[40] = target: T39, SGK3 (Homo sapiens, UniProt Q96BR1); assay: Proqinase Kinase profiling; format: biochemical; conditions: read-out: % inhibition at 100nM
T39 construct: purchased DiscoverX

[41] = target: T40, EPHA2 (Homo sapiens, UniProt P29317); assay: Proqinase Kinase profiling; format: biochemical; conditions: read-out: % inhibition at 100nM
T40 construct: purchased DiscoverX

Work on `Clc1cc2cc(c1)-c1cnn3ccc(nc13)NCCOCCO2` [OD36] yielded an inhibition at 0.1 µM [1] of 3%, an inhibition at 0.1 µM [2] of 15% and an inhibition at 0.1 µM [3] of 5%. The inhibition at 0.1 µM [4] was 28%, the inhibition at 0.1 µM [5] was 12% and the inhibition at 0.1 µM [6] was 2%. It also gave an inhibition at 0.1 µM [7] of 11%, an inhibition at 0.1 µM [8] of 20% and an inhibition at 0.1 µM [9] of -2%. The inhibition at 0.1 µM [10] was 6%, the inhibition at 0.1 µM [11] was -3% and the inhibition at 0.1 µM [12] was 22%. The inhibition at 0.1 µM [13] was 94%, the inhibition at 0.1 µM [14] was 6% and the inhibition at 0.1 µM [15] was 17%. The inhibition at 0.1 µM [16] was -6%, the inhibition at 0.1 µM [17] was 38% and the inhibition at 0.1 µM [18] was -11%. It also gave an inhibition at 0.1 µM [19] of 12%, an inhibition at 0.1 µM [20] of 12% and an inhibition at 0.1 µM [21] of 16%. The inhibition at 0.1 µM [22] was 13%, the inhibition at 0.1 µM [23] was 48% and the inhibition at 0.1 µM [24] was 29%. The inhibition at 0.1 µM [25] was 22%, the inhibition at 0.1 µM [26] was 32% and the inhibition at 0.1 µM [27] was 6%. It also gave an inhibition at 0.1 µM [28] of 15%, an inhibition at 0.1 µM [29] of 10% and an inhibition at 0.1 µM [30] of 35%. For the same molecule, the inhibition at 0.1 µM [31] was 13%, the inhibition at 0.1 µM [32] was 7% and the inhibition at 0.1 µM [33] was -1%. The inhibition at 0.1 µM [34] was 43%, the inhibition at 0.1 µM [35] was 7% and the inhibition at 0.1 µM [36] was 5%. For the same molecule, the “Inhibitory effect on TGF-β-induced gene transcription (CAGA-LUC)” value [37] was “significantly less inhibitory effect”, the inhibition at 0.1 µM [38] was 6% and the inhibition at 0.1 µM [39] was 28%. The inhibition at 0.1 µM [40] was 7% and the inhibition at 0.1 µM [41] was 7%.

With `Cc1cc2cc(c1)-c1cnn3ccc(nc13)NCCNC(=O)CCN(C)C2` [OD52] the inhibition at 0.1 µM [1] was -14%, the inhibition at 0.1 µM [2] was -4% and the inhibition at 0.1 µM [3] was -6%. The inhibition at 0.1 µM [4] was 28%, the inhibition at 0.1 µM [5] was -31% and the inhibition at 0.1 µM [6] was -2%. For the same molecule, the inhibition at 0.1 µM [7] was -12%, the inhibition at 0.1 µM [8] was -8% and the inhibition at 0.1 µM [9] was -7%. For the same molecule, the inhibition at 0.1 µM [10] was -12%, the inhibition at 0.1 µM [11] was 4% and the inhibition at 0.1 µM [12] was 6%. It also gave an inhibition at 0.1 µM [13] of -1%, an inhibition at 0.1 µM [14] of -1% and an inhibition at 0.1 µM [15] of -15%. The inhibition at 0.1 µM [16] was -12%, the inhibition at 0.1 µM [17] was 5% and the inhibition at 0.1 µM [18] was -22%. The inhibition at 0.1 µM [19] was -10%, the inhibition at 0.1 µM [20] was -2% and the inhibition at 0.1 µM [21] was 5%. The inhibition at 0.1 µM [22] was 4%, the inhibition at 0.1 µM [23] was 4% and the inhibition at 0.1 µM [24] was -3%. It also gave an inhibition at 0.1 µM [25] of 13%, an inhibition at 0.1 µM [26] of -14% and an inhibition at 0.1 µM [27] of 1%. It also gave an inhibition at 0.1 µM [28] of -4%, an inhibition at 0.1 µM [29] of -9% and an inhibition at 0.1 µM [30] of -6%. It also gave an inhibition at 0.1 µM [31] of -2%, an inhibition at 0.1 µM [32] of -9% and an inhibition at 0.1 µM [33] of -1%. It also gave an inhibition at 0.1 µM [34] of -14%, an inhibition at 0.1 µM [35] of -1% and an inhibition at 0.1 µM [36] of 6%. The “Inhibitory effect on TGF-β-induced gene transcription (CAGA-LUC)” value [37] was “significantly less inhibitory effect”, the inhibition at 0.1 µM [38] was -8% and the inhibition at 0.1 µM [39] was 9%. For the same molecule, the inhibition at 0.1 µM [40] was 0% and the inhibition at 0.1 µM [41] was -6%.
